Values quoted from earlier work, collected in patent US20220193028A1, “THERAPEUTIC COMBINATIONS, LIQUID PHARMACEUTICAL COMPOSITIONS, KITS FOR THEIR PREPARATION, AND METHODS OF THEIR USE” (priority 2019, published 2022).

Molecular target: AMPA receptor
Conditions: non-competitive selective allosteric modulator of the AMPA receptor; read-out: IC50 (block of glutamate induced currents)

## N#Cc1ccccc1-c1cc(-c2ccccn2)cn(-c2ccccc2)c1=O [perampanel]
  IC50: ~560 nM
